Columns and labels:
Test in all cases: relative viability (nuclei count vs DMSO), 5 days (fraction); higher = more cells survive
Sulindac + Lapatinib = compound: CC1=C(CC(=O)O)c2cc(F)ccc2/C1=C\c1ccc([S+](C)[O-])cc1 [Sulindac] + CS(=O)(=O)CCNCc1ccc(-c2ccc3ncnc(Nc4ccc(OCc5cccc(F)c5)c(Cl)c4)c3c2)o1 [Lapatinib] (partner 2 µM)
Summary of the method: (§1)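 For relative viability, nuclei counts in treated wells were divided by those in vehicle wells. Lung cancer cell lines had been pin-tool dosed in 1536-well plates the day after seeding and cultured for 5 days, then fixed and stained in one step (final 0.05% Triton X-100, 1% formaldehyde, 1 ug/ml Hoechst) and imaged at 4×. Doses were one drug alone or a fixed anchor-drug dose plus five library-drug doses (not always all listed) in √10 steps, and values are duplicate-plate medians.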

[1] = compound: CN[C@@H]1C[C@H]2O[C@@](C)([C@@H]1OC)n1c3ccccc3c3c4c(c5c6ccccc6n2c5c31)C(=O)NC4 [Staurosporine] + Cc1nc(Nc2ncc(C(=O)Nc3c(C)cccc3Cl)s2)cc(N2CCN(CCO)CC2)n1 [Dasatinib] (partner 0.075 µM)
Summary of the method: as §1

[2] = compound: CN[C@@H]1C[C@H]2O[C@@](C)([C@@H]1OC)n1c3ccccc3c3c4c(c5c6ccccc6n2c5c31)C(=O)NC4 [Staurosporine] + CS(=O)(=O)CCNCc1ccc(-c2ccc3ncnc(Nc4ccc(OCc5cccc(F)c5)c(Cl)c4)c3c2)o1 [Lapatinib] (partner 2 µM)
Summary of the method: as §1

[3] = compound: CN[C@@H]1C[C@H]2O[C@@](C)([C@@H]1OC)n1c3ccccc3c3c4c(c5c6ccccc6n2c5c31)C(=O)NC4 [Staurosporine] + CC(=O)Nc1cccc(-n2c(=O)n(C3CC3)c(=O)c3c(Nc4ccc(I)cc4F)n(C)c(=O)c(C)c32)c1 [Trametinib] (partner 0.02 µM)
Summary of the method: as §1

Cell Line | relative viability (Sulindac + Lapatinib; first compound 0.08 µM) | relative viability (Sulindac + Lapatinib; first compound 0.253 µM) | relative viability (Sulindac + Lapatinib; first compound 0.8 µM) | relative viability (Sulindac + Lapatinib; first compound 2.53 µM) | relative viability (Sulindac + Lapatinib; first compound 8 µM) | relative viability ([1]; first compound 0.005 µM) | relative viability ([1]; first compound 0.05 µM) | relative viability ([1]; first compound 0.1581 µM) | relative viability ([1]; first compound 0.5 µM) | relative viability ([2]; first compound 0.005 µM) | relative viability ([2]; first compound 0.01581 µM) | relative viability ([2]; first compound 0.05 µM) | relative viability ([2]; first compound 0.1581 µM) | relative viability ([2]; first compound 0.5 µM) | relative viability ([3]; first compound 0.005 µM) | relative viability ([3]; first compound 0.01581 µM) | relative viability ([3]; first compound 0.05 µM) | relative viability ([3]; first compound 0.1581 µM) | relative viability ([3]; first compound 0.5 µM) | relative viability ([1]; first compound 0.01581 µM)
NCI-H23 | 1.26 | 1.17 | 0.996 | 0.98 | 1.3 | 0.833 | 0.259 | 0.13 | 0.154 | 0.886 | 0.184 | 0.357 | 0.172 | 0.134 | 0.315 | 0.165 | 0.172 | 0.0936 | 0.119 | –
LU99A | 1.33 | 1.11 | 0.854 | 0.869 | 1.01 | 0.353 | 0.176 | 0.191 | 0.112 | 0.669 | 0.313 | 0.282 | 0.171 | 0.133 | 0.461 | 0.243 | 0.23 | 0.182 | 0.133 | 0.227
NCI-H1437 | 0.884 | 1.01 | 0.593 | 0.856 | 1.1 | 0.391 | 0.285 | 0.173 | 0.134 | 0.698 | 0.346 | 0.453 | 0.152 | 0.0978 | 0.342 | 0.244 | 0.26 | 0.21 | 0.124 | 0.208
EKVX | 0.193 | 0.186 | 0.21 | 0.18 | 0.111 | 0.666 | 0.201 | 0.202 | 0.161 | 0.152 | 0.135 | 0.162 | 0.156 | 0.1 | 0.224 | 0.184 | 0.143 | 0.169 | 0.12 | 0.282
NCI-H647 | 1.22 | 1.13 | 0.651 | 1.38 | 1.32 | 0.0983 | 0.0669 | 0.073 | 0.0532 | 0.603 | 0.262 | 0.253 | 0.0661 | 0.0597 | 0.295 | 0.151 | 0.0868 | 0.0601 | 0.0349 | 0.0707
NCI-H1734 | 1.06 | 1.08 | 0.893 | 0.986 | 1.44 | 0.309 | 0.136 | 0.1 | 0.116 | 0.958 | 0.322 | 0.31 | 0.121 | 0.136 | 0.715 | 0.387 | 0.165 | 0.119 | 0.101 | –
LCLC-97TM1 | 0.962 | 1.45 | 0.83 | – | 1.37 | 0.611 | 0.286 | 0.378 | 0.293 | 0.864 | 0.168 | 0.285 | 0.174 | 0.381 | 0.168 | 0.115 | 0.103 | 0.0977 | 0.0977 | 0.254
NCI-H2170 | 0.249 | 0.282 | 0.251 | 0.272 | 0.286 | 0.91 | 0.648 | 0.106 | 0.117 | 0.289 | 0.236 | 0.258 | 0.197 | 0.193 | – | – | 0.904 | 0.63 | 0.379 | –
NCI-H1793 | 0.731 | 0.778 | 0.533 | 0.795 | 0.787 | 0.457 | 0.302 | 0.141 | 0.144 | 0.829 | 0.281 | 0.527 | 0.216 | 0.18 | 0.472 | – | 0.359 | 0.168 | 0.169 | –
NCI-H322M | 0.632 | 0.626 | 0.523 | 0.565 | 0.561 | 0.365 | 0.324 | 0.277 | 0.273 | 0.746 | 0.438 | 0.484 | 0.402 | 0.278 | 0.518 | 0.418 | 0.342 | 0.45 | 0.432 | 0.401
RERF-LC-KJ | 0.888 | 0.934 | 0.685 | 0.862 | 0.943 | 0.416 | 0.223 | 0.192 | 0.201 | 0.878 | 0.821 | 0.734 | 0.424 | 0.245 | 0.795 | 0.604 | – | 0.328 | 0.207 | 0.364
EPLC-272H | 0.987 | – | 0.602 | 0.78 | 1.24 | 0.179 | 0.0709 | 0.0723 | 0.103 | 0.787 | 0.194 | 0.513 | 0.175 | 0.149 | 0.291 | 0.15 | 0.123 | 0.067 | 0.0425 | 0.0602
A-427 | 1.23 | 1.02 | 1.07 | 1.05 | 1.1 | 0.5 | 0.183 | 0.0891 | 0.128 | 0.967 | 0.245 | 0.56 | 0.303 | 0.175 | 0.521 | 0.439 | 0.247 | 0.121 | 0.117 | 0.206

— the supplement of paper PMC10307832
